Assay results as given in patent EP4722207A1, “OXOISOINDOLINYL-SUBSTITUTED TETRAHYDROPYRIMIDINEDIONE DERIVATIVE AND USE THEREOF” (Gluetacs Therapeutics (Shanghai) Co., Ltd., priority 2023, dated 2024).

Key:
WEE1 = target: T1, WEE1 (Homo sapiens, UniProt P30291+Q96SW2); experiment: Western-blot assay, substrate protein degradation in hPBMCs: WEE1; assay type: cell-based; conditions: for substrate protein remaining % WEE1: 24 hours of compound treatment, 50 nM and 500 nM; for WEE1 substrate protein remaining %: compounds at 50 nM and 500 nM, 24 hours
T1 construct: effects of the compounds of the present disclosure on the expression of target proteins in cells; endogenous in cells; host or cells: human PBMCs (hPBMCs)

IKZF1 = target: T2, IKZF1 (Homo sapiens, UniProt Q13422+Q96SW2); experiment: Western-blot assay, substrate protein degradation in hPBMCs: IKZF1; assay type: cell-based; conditions: for substrate protein remaining % IKZF1: 24 hours of compound treatment, 50 nM and 500 nM; for IKZF1 substrate protein remaining %: compounds at 50 nM and 500 nM, 24 hours
T2 construct: effects of the compounds of the present disclosure on the expression of target proteins in cells; endogenous in cells; host or cells: human PBMCs (hPBMCs)

IKZF2 = target: T3, IKZF2 (Homo sapiens, UniProt Q96SW2+Q9UKS7); experiment: Western-blot assay, substrate protein degradation in hPBMCs: IKZF2; assay type: cell-based; conditions: for substrate protein remaining % IKZF2: 24 hours of compound treatment, 50 nM and 500 nM; for IKZF2 substrate protein remaining %: compounds at 50 nM and 500 nM, 24 hours
T3 construct: effects of the compounds of the present disclosure on the expression of target proteins in cells; endogenous in cells; host or cells: human PBMCs (hPBMCs)

IKZF3 = target: T4, IKZF3 (Homo sapiens, UniProt Q96SW2+Q9UKT9); experiment: Western-blot assay, substrate protein degradation in hPBMCs: IKZF3; assay type: cell-based; conditions: for substrate protein remaining % IKZF3: 24 hours of compound treatment, 50 nM and 500 nM; for IKZF3 substrate protein remaining %: compounds at 50 nM and 500 nM, 24 hours
T4 construct: effects of the compounds of the present disclosure on the expression of target proteins in cells; endogenous in cells; host or cells: human PBMCs (hPBMCs)

CK1α = target: T5, CK1α (Homo sapiens, UniProt P48729+Q96SW2); experiment: Western-blot assay, substrate protein degradation in hPBMCs: CK1α; assay type: cell-based; conditions: for substrate protein remaining % CK1α: 24 hours of compound treatment, 50 nM and 500 nM; for CK1α substrate protein remaining %: compounds at 50 nM and 500 nM, 24 hours
T5 construct: effects of the compounds of the present disclosure on the expression of target proteins in cells; endogenous in cells; host or cells: human PBMCs (hPBMCs)

GSPT1 = target: T6, GSPT1 (Homo sapiens, UniProt P15170+Q96SW2); experiment: Western-blot assay, substrate protein degradation in hPBMCs: GSPT1; assay type: cell-based; conditions: for substrate protein remaining % GSPT1: 24 hours of compound treatment, 50 nM and 500 nM; for GSPT1 substrate protein remaining %: compounds at 50 nM and 500 nM, 24 hours
T6 construct: effects of the compounds of the present disclosure on the expression of target proteins in cells; endogenous in cells; host or cells: human PBMCs (hPBMCs)

MM.1S = experiment: Cell viability assay (CellTiter-Meiluncell Luminescent), tumor cell proliferation, MM.1S; conditions: Homo sapiens, MM1.S, 96 h, read-out: inhibitory activity (IC50, nM) against tumor cells proliferation, MM.1S
Description: The tumor cells used herein were cultured in a cell culture medium listed in table 2 at 37°C in an incubator with 5% CO2. Prior to experimentation, all cell lines used were correctly identified by STR profiling, and tested negative for mycoplasma contamination using a mycoplasma detection kit through routine screenings.
On the following day, the test compounds of the present disclosure were subjected to serial dilution. […] Subsequently, 0.5 µL of the test compound dilution was transferred into the 96-well plate containing the cells, with each well containing 100 µL of cell culture medium. […] Into the 96-well plate, the diluted test compounds and corresponding detection reagents were added, resulting in final test compound concentrations of 500 nM and 10 nM, respectively. The experimental procedure is described below using the diluted 2 µM test compound as an example.
After the cells were treated with the compounds of the present disclosure for a specified period, the cell viability assay reagent was added to the culture medium according to the kit's instructions to determine cell viability. […] All controls were treated using the same procedure as the compounds of the present disclosure. The growth inhibition curves for the compounds of the present disclosure were plotted using Prism GraphPad software, and the IC50 values were calculated therefrom.

Jurkat = experiment: Cell viability assay (CellTiter-Meiluncell Luminescent), tumor cell proliferation, Jurkat; conditions: Homo sapiens, 96 h, read-out: inhibitory activity (IC50, nM) against tumor cells proliferation, Jurkat

T2 sequence (Q13422 whole entry): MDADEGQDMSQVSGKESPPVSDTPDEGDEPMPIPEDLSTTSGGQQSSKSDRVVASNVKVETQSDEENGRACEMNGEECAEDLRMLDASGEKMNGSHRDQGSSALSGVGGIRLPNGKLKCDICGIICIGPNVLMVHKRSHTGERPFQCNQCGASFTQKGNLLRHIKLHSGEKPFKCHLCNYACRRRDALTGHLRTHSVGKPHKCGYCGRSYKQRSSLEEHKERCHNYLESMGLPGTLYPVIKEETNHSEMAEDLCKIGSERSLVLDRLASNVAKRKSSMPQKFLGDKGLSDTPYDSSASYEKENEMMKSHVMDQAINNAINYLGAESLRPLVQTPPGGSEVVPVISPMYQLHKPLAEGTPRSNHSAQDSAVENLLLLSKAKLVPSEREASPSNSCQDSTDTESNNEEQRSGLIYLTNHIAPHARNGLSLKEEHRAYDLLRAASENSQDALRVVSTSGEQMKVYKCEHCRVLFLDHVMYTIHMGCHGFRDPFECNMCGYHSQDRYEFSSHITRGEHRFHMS
T2 sequence (Q96SW2 whole entry): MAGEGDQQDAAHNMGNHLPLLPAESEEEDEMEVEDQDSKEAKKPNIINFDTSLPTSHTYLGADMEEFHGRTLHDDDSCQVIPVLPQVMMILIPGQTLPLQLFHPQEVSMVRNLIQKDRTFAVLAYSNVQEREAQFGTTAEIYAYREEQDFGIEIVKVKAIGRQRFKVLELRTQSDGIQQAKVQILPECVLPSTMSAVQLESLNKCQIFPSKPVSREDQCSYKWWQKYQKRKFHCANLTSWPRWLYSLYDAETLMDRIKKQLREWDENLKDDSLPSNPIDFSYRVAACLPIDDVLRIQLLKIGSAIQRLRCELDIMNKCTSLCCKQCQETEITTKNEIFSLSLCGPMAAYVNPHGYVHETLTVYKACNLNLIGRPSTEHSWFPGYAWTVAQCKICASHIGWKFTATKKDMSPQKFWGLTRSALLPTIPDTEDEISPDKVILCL
T2 sequence (Q16531 whole entry partner): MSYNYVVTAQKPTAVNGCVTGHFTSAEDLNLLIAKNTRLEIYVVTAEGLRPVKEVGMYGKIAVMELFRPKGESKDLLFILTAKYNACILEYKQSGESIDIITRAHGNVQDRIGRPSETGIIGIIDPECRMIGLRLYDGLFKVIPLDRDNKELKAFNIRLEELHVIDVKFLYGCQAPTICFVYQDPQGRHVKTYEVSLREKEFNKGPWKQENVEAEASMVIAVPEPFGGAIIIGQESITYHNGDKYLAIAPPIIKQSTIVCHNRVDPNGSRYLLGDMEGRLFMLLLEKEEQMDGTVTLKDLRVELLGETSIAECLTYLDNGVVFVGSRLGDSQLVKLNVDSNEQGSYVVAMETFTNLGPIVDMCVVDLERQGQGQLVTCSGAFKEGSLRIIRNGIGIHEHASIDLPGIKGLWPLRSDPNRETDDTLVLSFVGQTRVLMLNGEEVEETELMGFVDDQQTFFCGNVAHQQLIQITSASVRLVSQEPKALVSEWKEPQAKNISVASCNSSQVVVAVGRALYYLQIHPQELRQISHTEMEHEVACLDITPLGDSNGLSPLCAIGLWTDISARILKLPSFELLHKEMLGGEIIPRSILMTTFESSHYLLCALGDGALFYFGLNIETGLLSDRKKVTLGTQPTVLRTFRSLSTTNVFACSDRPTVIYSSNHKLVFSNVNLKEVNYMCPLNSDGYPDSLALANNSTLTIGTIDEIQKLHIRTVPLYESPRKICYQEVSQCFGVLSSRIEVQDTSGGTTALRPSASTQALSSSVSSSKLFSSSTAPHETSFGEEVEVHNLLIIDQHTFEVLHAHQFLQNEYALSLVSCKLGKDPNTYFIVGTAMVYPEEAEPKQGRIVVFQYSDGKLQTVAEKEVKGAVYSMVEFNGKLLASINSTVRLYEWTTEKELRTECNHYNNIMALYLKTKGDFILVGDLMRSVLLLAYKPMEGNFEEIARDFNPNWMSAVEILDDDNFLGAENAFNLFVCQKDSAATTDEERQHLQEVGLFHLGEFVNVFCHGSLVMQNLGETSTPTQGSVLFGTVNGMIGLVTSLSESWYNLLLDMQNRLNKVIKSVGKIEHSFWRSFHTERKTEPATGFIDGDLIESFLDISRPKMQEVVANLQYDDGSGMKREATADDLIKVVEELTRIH
T6 sequence (P15170 whole entry): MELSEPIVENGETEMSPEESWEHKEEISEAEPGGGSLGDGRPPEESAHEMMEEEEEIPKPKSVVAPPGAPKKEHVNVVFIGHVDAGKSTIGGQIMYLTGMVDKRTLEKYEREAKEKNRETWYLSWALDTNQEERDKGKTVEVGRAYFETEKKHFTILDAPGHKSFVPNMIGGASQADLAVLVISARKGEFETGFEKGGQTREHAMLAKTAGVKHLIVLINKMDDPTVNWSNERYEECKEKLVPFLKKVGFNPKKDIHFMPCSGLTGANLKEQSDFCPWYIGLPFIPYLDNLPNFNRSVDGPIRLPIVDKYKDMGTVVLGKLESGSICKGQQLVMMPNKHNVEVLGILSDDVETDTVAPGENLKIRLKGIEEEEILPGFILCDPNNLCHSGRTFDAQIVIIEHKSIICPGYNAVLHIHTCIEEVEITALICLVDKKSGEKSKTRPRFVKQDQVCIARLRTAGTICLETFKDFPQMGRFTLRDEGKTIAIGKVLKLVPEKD
T6 sequence (Q96SW2 whole entry): as the sequence (Q96SW2 whole entry) above
T6 sequence (Q16531 whole entry partner): as the sequence (Q16531 whole entry partner) above
T5 sequence (P48729 whole entry): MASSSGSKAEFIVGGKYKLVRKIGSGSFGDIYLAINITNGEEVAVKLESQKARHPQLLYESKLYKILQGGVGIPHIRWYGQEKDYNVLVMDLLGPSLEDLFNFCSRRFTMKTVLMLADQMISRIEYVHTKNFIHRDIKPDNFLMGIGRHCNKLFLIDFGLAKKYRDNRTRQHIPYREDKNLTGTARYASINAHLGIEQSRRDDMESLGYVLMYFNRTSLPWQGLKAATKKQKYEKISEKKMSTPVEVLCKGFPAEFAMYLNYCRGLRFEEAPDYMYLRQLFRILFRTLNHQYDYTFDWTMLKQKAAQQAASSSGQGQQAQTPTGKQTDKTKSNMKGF
T5 sequence (Q96SW2 whole entry): as the sequence (Q96SW2 whole entry) above
T5 sequence (Q16531 whole entry partner): as the sequence (Q16531 whole entry partner) above
T3 sequence (Q9UKS7 whole entry): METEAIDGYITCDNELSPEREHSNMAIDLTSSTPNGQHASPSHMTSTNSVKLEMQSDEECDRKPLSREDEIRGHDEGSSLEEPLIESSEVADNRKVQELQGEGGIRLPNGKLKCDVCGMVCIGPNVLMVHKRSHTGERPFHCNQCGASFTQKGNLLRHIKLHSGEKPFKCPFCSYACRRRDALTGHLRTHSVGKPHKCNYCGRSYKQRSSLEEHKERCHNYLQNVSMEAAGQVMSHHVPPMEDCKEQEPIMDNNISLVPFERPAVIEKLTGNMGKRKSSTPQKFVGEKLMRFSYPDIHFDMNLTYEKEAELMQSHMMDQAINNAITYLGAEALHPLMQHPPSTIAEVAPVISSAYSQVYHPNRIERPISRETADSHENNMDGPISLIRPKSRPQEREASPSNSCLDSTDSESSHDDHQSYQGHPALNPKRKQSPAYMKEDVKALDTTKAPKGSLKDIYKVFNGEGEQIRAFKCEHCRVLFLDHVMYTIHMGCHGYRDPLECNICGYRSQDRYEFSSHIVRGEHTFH
T3 sequence (Q96SW2 whole entry): as the sequence (Q96SW2 whole entry) above
T3 sequence (Q16531 whole entry partner): as the sequence (Q16531 whole entry partner) above
T4 sequence (Q9UKT9 whole entry): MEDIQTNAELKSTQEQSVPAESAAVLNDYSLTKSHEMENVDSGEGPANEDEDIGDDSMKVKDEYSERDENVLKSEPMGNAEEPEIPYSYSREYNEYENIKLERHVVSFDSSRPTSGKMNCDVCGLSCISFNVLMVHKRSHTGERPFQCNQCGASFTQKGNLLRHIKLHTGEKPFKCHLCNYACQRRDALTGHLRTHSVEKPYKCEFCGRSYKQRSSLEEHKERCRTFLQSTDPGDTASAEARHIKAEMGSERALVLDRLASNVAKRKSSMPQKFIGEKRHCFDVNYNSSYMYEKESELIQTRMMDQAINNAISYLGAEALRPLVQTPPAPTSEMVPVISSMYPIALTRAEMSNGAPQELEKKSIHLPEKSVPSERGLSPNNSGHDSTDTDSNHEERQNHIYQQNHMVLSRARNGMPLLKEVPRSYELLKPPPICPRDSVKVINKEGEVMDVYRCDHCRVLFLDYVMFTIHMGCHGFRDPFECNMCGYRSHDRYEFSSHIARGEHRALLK
T4 sequence (Q96SW2 whole entry): as the sequence (Q96SW2 whole entry) above
T4 sequence (Q16531 whole entry partner): as the sequence (Q16531 whole entry partner) above

Row | SMILES | substrate protein remaining % WEE1 (WEE1) | substrate protein remaining % IKZF1 (IKZF1) | substrate protein remaining % IKZF2 (IKZF2) | substrate protein remaining % IKZF3 (IKZF3) | substrate protein remaining % CK1α (CK1α) | substrate protein remaining % GSPT1 (GSPT1) | IC50 (MM.1S) | IC50 (Jurkat) | WEE1 substrate protein remaining % (WEE1) | IKZF1 substrate protein remaining % (IKZF1) | IKZF2 substrate protein remaining % (IKZF2) | IKZF3 substrate protein remaining % (IKZF3) | CK1α substrate protein remaining % (CK1α) | GSPT1 substrate protein remaining % (GSPT1)
1 | Cn1cc(C2CCN(Cc3ccc4c(c3)CN(N3CCC(=O)NC3=O)C4=O)CC2)c2ccc(F)cc21 [GT-07575, 1-(5-((4-(6-fluoro-1-methyl-1H-indol-3-yl)piperidin-1-yl)methyl)-1-oxoisoindolin-2-yl)dihydropyrimidine-2,4(1H,3H)-dione] | A (0% ≤ substrate protein remaining % ≤ 80%) | A (0% ≤ substrate protein remaining % ≤ 80%) | A (0% ≤ substrate protein remaining % ≤ 80%) | A (0% ≤ substrate protein remaining % ≤ 80%) | A (0% ≤ substrate protein remaining % ≤ 80%) | A (0% ≤ substrate protein remaining % ≤ 80%) | 100 to 300 nM | 100 to 300 nM | – | – | – | – | – | –
2 | O=C1CCN(N2Cc3cc(CN4CCN(C(c5cccc(F)c5)c5cccc(F)c5)CC4)ccc3C2=O)C(=O)N1 [GT-07293, 1-(5-((4-(bis(3-fluorophenyl)methyl)piperazin-1-yl)methyl)-1-oxoisoindolin-2-yl)dihydropyrimidine-2,4(1H,3H)-dione] | – | – | – | – | – | – | 100 to 300 nM | 100 to 300 nM | A ("A" is defined as 0% ≤ substrate protein remaining % ≤ 80%) | B ("B" is defined as 80%< substrate protein remaining %≤ 100%) | A ("A" is defined as 0% ≤ substrate protein remaining % ≤ 80%) | A ("A" is defined as 0% ≤ substrate protein remaining % ≤ 80%) | B ("B" is defined as 80%< substrate protein remaining %≤ 100%) | A ("A" is defined as 0% ≤ substrate protein remaining % ≤ 80%)
3 | O=C1CCN(N2Cc3cc(CN4CCC(c5cccs5)CC4)ccc3C2=O)C(=O)N1 [GT-07511, 1-(1-oxo-5-((4-(thiophen-2-yl)piperidin-1-yl)methyl)isoindolin-2-yl)dihydropyrimidine-2,4(1H,3H)-dione] | A (0% ≤ substrate protein remaining % ≤ 80%) | A (0% ≤ substrate protein remaining % ≤ 80%) | A (0% ≤ substrate protein remaining % ≤ 80%) | B (80%< substrate protein remaining %≤ 100%) | A (0% ≤ substrate protein remaining % ≤ 80%) | A (0% ≤ substrate protein remaining % ≤ 80%) | 500 to 1000 nM | 500 to 1000 nM | – | – | – | – | – | –
4 | O=C1CCN(N2Cc3cc(CN4CC=C(c5ccco5)CC4)ccc3C2=O)C(=O)N1 [GT-04874, 1-(5-((4-(furan-2-yl)-3,6-dihydropyridin-1(2H)-yl)methyl)-1-oxoisoindolin-2-yl)dihydropyrimidine-2,4(1H,3H)-dione] | – | – | – | – | – | – | 100 to 300 nM | 500 to 1000 nM | A ("A" is defined as 0% ≤ substrate protein remaining % ≤ 80%) | A ("A" is defined as 0% ≤ substrate protein remaining % ≤ 80%) | B ("B" is defined as 80%< substrate protein remaining %≤ 100%) | A ("A" is defined as 0% ≤ substrate protein remaining % ≤ 80%) | B ("B" is defined as 80%< substrate protein remaining %≤ 100%) | A ("A" is defined as 0% ≤ substrate protein remaining % ≤ 80%)
5 | O=C1CCN(N2Cc3cc(CN4CC=C(c5c[nH]c6ncccc56)CC4)ccc3C2=O)C(=O)N1 [GT-07577, 1-(5-((4-(1H-pyrrolo[2,3-b]pyridin-3-yl)-3,6-dihydropyridin-1(2H)-yl)methyl)-1-oxoisoindolin-2-yl)dihydropyrimidine-2,4(1H,3H)-dione] | A (0% ≤ substrate protein remaining % ≤ 80%) | A (0% ≤ substrate protein remaining % ≤ 80%) | B (80%< substrate protein remaining %≤ 100%) | A (0% ≤ substrate protein remaining % ≤ 80%) | A (0% ≤ substrate protein remaining % ≤ 80%) | A (0% ≤ substrate protein remaining % ≤ 80%) | 300 to 500 nM | 500 to 1000 nM | – | – | – | – | – | –
